Source: patent publication US20110003000A1, “Transvaginal Delivery of Drugs” (FemmePharma Holding Company, Inc., priority 2009, published 2011)
Counter-ions that a name gives are not always drawn.

What was measured:
[1] = system: urgency incontinence; urinary frequency, urgency and nocturia; assay: Clinical case reports of transvaginal oxybutynin; assay type: in vivo, human; details: person
Method: A person developed urgency incontinence two years after their laparoscopically assisted transvaginal hysterectomy. […] Two weeks later, they started applying oxybutynin (5 mg) into the vagina at bed time, instead of Ditropan XL. […] The patient used transvaginal oxybutynin (5 mg) at bed time for 6 months.
A person with a history of chronic pelvic pain and multiple surgical procedures, including pain mapping under conscious sedation and repair of occult bilateral inguinal hernias, developed urinary frequency, urgency and nocturia. Their urine analysis and urine culture were negative for signs of urinary tract infection. Their treatment began with transvaginal oxybutynin (5 mg) once daily, at bed time, applied into the vagina.

[2] = system: persistent urge incontinence; details: intravesical administration; eleven patients; cited from earlier work
[3] = 5 mg into the vagina at bed time
[4] = 5 mg into the vagina twice daily
[5] = transvaginal 5 mg at bed time for 6 months

SMILES: Cc1ccc(O)c([C@H](CCN(C(C)C)C(C)C)c2ccccc2)c1 [DETROL, tolterodine tartrate]
- improvement of urgency incontinence ([1]; 2 mg orally twice a day): slight improvement

SMILES: CCN(CC)CC#CCOC(=O)C(O)(c1ccccc1)C1CCCCC1 (stereo not shown) [oxybutynin chloride]
- patients reporting improvement and becoming totally continent [2]: Ten out of eleven
- side effects [2]: no side effects were observed

SMILES: CCN(CC)CC#CCOC(=O)C(O)(c1ccccc1)C1CCCCC1 (stereo not shown) [oxybutynin]
- side effects [1, 3]: did not experience any noticeable side effects
- urgency symptoms [1, 3]: improved remarkably
- improvement of symptoms [1, 4]: remarkable improvement
- side effects [1, 4]: no significant side effects
- control of symptoms of urgency incontinence throughout the treatment period [1, 5]: remained effective
- side effects throughout the treatment period [1, 5]: did not suffer from any side effects
- improvement of urinary frequency, urgency and nocturia ([1]; transvaginal 5 mg once daily at bed time): significant improvement
